Data from patent US20110214190A1, “TRANSGENIC REPORTER MOUSE AND METHOD FOR USE” (priority 2008, published 2011).
Where two headings read alike, the source gives them in different places. Peptide text beside a SMILES is read from it. * marks the point of attachment. Cbz = O=C(OCc1ccccc1)*

Experiments:
[1] = system: cells from reporter kidneys; assay: NGAL-luciferase activity in primary cells from reporter kidneys; type: cell-based, mouse; conditions: plates seeded with cells from reporter kidneys
Description: NGAL di-fusion primary cells from whole organs. Whole kidney cells were obtained from the NGAL di-fusion reporter mice (8-12 weeks of age) using collagenase (Sigma) digestion, differential sieving and seeded at a density of 1×10^5 per well. Cells were washed with a buffered salt solution and grown overnight before exposure to TLR agonists, ROS inducing species or toxin. Plates were imaged in the Xenogen IVIS optical imaging system (Xenogen Corp., Almeda, Calif.) for NGAL-luciferase activity.
Bioluminescence and Fluorescence Imaging of mCherry and luciferase Expression in Living Mice and primary cell lines. For in vivo bioluminescence imaging, mice were anesthetized, and injected with 150 mg/kg of luciferin in PBS (pH 7) via IP injection that is allowed to distribute in awake animals for about 10 minutes. […] Regions of interest (ROIs) were drawn on the dorsal side of the animal and quantified by using Living Image Software version 3.1. Counts detected in the ROIs by the CCD camera digitizer can by converted to physical units of radiance in photons/s/cm2/steradian. […] NGAL reporter primary cells were first imaged for mCherry activity with block excitation and block emission and NGAL-luciferase activity was quantified by detection of light emitted after cell lysis and incubation with luciferin. […]

NGAL expression = assay: Cell stressors, NGAL expression; type: cell-based; conditions: H202 1 mmol/L for 4 hours
[2] = cited from earlier work
PARP = conditions: after onset of acute hindlimb ischemia (post hoc), during I/R; cited from earlier work
NGAL message [3] = assay: Ngal in situ hybridization of kidney after lipidA challenge; type: in vivo, mouse; conditions: after LipidA treatment
Method: In situ hybridization. NGAL RNA was detected using digoxigenin-labeled antisense riboprobes generated from cDNAs encoding Ngal (exon 1-7, 566 bp) by linearization with XhoI followed by T7 RNA polymerase. Kidneys were collected in ice-cold PBS and fixed overnight at 4° C. in 4% paraformaldehyde (PFA) in 0.1 M phosphate buffer saline (PBS), briefly quenched in 50 mM NH4Cl, cryoprotected overnight in 30% sucrose PBS and embedded and sectioned ([…]) in O.C.T. compound. The sections were post-fixed in 4% PFA for 10 min, treated with proteinase K (1 mg/ml for 3 min), acetylated and prehybridized for 2 hrs, and then hybridized at 68-72° C. overnight. The prehybridization and hybridization solution was 50% formamide, 5′SSC, 5′ Denhardts, […] baker's yeast RNA (Sigma), and […] herring sperm DNA (Sigma). Sections were washed at 72° C. in 5′SSC for 5-10 minutes, then at 72° C. in 0.2′SSC for 1 hour and then stained overnight (4° C.) with an anti-digoxigenin antibody coupled with alkaline phosphatase (Boehringer-Mannheim), at a 1:5000 dilution in 0.1 M Tris-HCl, pH 7.5, 0.15 M NaCl, 1% heat inactivated goat serum. Alkaline phosphatase activity was detected using BCIP, NBT (Boehringer-Mannheim) with 0.25 mg/ml levamisole in a humidified chamber for 1-3 days in the dark. Sections were dehydrated and mounted in Permount (Fisher Scientific). […]

NGAL message [4] = assay: NGAL message (real-time PCR) in kidney after LipidA; type: in vivo, mouse; conditions: 30 mg/kg LipidA
Method: (§1) Real-Time PCR were prepared according to Bio-Rad SYBR GREEN, iCyclerMyiQ protocols. Target genes, including Ngal, β-actin, utilized respectively: Ngal 116 forward primer 5′-[…]-3′ and NGALa593 reverse 5′-[…]-3′; β-actin415 forward primer 5′-[…]-3′ and β-actin 696 reverse primer 5′-[…]-3′. The ΔΔCT method was used to calculate fold amplification of transcripts.
as §1, with “Real Time” for “Real-Time”, “PCR analysis. Samples” for “PCR”, “processed” for “prepared”, “genes” for “genes, including Ngal, β-actin,”

[5] = type: in vivo, mouse
Description: Identification of Hidden Damage. Serum creatinine was little changed in our model of unilateral ischemia, because the untouched contralateral kidney limited the opportunity for azotemia.

NGAL reporter ES cells = assay: NGAL-luciferase responsiveness in NGAL reporter ES cells; type: cell-based, mouse; conditions: NGAL reporter ES cells exposed to stimulant; control conditions no detectable expression
Description: […]. […] […]. Verification of the germline-transmitted F1 mice. The targeted allele was PCR-amplified by using primers F2, and R3 which was from the 1 Kb DNA fragment replaced by a DTA-AMP^r cassette in the targeting construct.
NGAL targeting in mouse ES cells. The NGAL-targeting construct was electroporated into the KV1 ES cells, and the neomycin-resistant ES clones were PCR-screened for the targeted NGAL allele for homologous recombination. Additionally, ES cells containing the NGAL di-fusion gene were challenged with either cisplatin or LPS to induce NGAL reporter activity (FIG. 1B, Panel D). ES cells with a Luc2-mCherry-LNL knockin allele were microinjected into wild-type C57B6 blastocysts to generate chimera which were subsequently mated with albino C57B6 female mice for germline transmission. The F1 mice were PCR-genotyped by using primers F1, R1 and R2, and the germline transmitted mice contained both targeted and wild type alleles (FIG. 1B, Panel C).
Luciferase (pGL4.10[luc2], Promega E6651) and mCherry (pmCherry [mC], Clontech 632522) genes separated by a 42 by spacer were ligated by overlap PCR and validated in 293T cells using a CMV promoter to drive robust Luc2 and mC bioluminescence and fluorescence (FIG. 1A, Panel A). […]

NGAL-Luc2/mC reporter = assay: In vivo bioluminescence imaging of NGAL di-fusion reporter mouse after LipidA; conditions: for NGAL activity assayed by luciferase (Luc2/mC response): kidney, liver, spleen, skin and lung, 24 hours after lipidA i.p. at 5, 15 and 30 mg/kg
Method: Bioluminescence and Fluorescence Imaging of mCherry and luciferase Expression in Living Mice and primary cell lines. For in vivo bioluminescence imaging, mice were anesthetized, and injected with 150 mg/kg of luciferin in PBS (pH 7) via IP injection that is allowed to distribute in awake animals for about 10 minutes. […]. Mice are then placed in a light tight chamber equipped with a halogen light source, and whole body image was acquired for 30 seconds using the Xenogen IVIS optical imaging system with a block excitation filter and a block emission filter for NGAL-mCherry visualization and an open emission filter for NGAL-luciferase activity. Regions of interest (ROIs) were drawn on the dorsal side of the animal and quantified by using Living Image Software version 3.1. Counts detected in the ROIs by the CCD camera digitizer can by converted to physical units of radiance in photons/s/cm2/steradian. Visualization of NGAL di-fusion reporter activity in primary cells were also assayed in the bioimager. NGAL reporter primary cells were first imaged for mCherry activity with block excitation and block emission and NGAL-luciferase activity was quantified by detection of light emitted after cell lysis and incubation with luciferin.

Nf-κβ signaling = assay: Nf-κβ inhibitors on LipidA induced Luc/mC expression in vivo; parameters: species or system mouse
Description: A signaling pathway known to activate NGAL expression was taken advantage of in order to examine whether Luc2/mC expression was reversible after cessation of the stimulus. […] Subsequently, Nf-κβ mediates NGAL transcription. […] In addition, the testis is one of the few sites that tonically expresses NGAL and Luc2/mC, and even this site was suppressed by these inhibitors.

cyst growth = conditions: polycystic kidney disease model; cited from earlier work

N.N.[Cl][Pt][Cl] [cisplatin]
Response of primary reporter kidney cells (luciferase) [1]: direct effect on renal epithelia

Cobalt
NGAL expression (NGAL expression): trigger NGAL expression

NCC(=O)O.[CH+]=O.[CH+]=O.[CH+]=O.[Cl][Ru] [CORM-3, tricarbonylchloro(glycinato)ruthenium(II)]
Levels of plasma creatinine ([2]; given 1 hour before onset of ischemia, 24 hours after reperfusion): significantly decreased

[C-]#[O+].[C-]#[O+].[C-]#[O+].[C-]#[O+].[C-]#[O+].[C-]#[O+].[Cl][Ru][Cl].[Cl][Ru][Cl] [tricarbonyldichlororuthenium(II) dimer]
Levels of plasma creatinine ([2]; in vivo): significantly decreased

CN(C)CC(=O)Nc1ccc2[nH]c(=O)c3ccccc3c2c1 [PJ34]
Local production of inflammatory mediators (PARP): modulates the local production of inflammatory mediators

LipidA
Localisation of Ngal expression in kidney (NGAL message [3]): predominate expression in inner medullary tubules
Localisation of Ngal expression in kidney (NGAL message [3]; listed as lipidA): expressed in tubules
NGAL message induced in the kidney (NGAL message [4]): 30 fold
Azotemia ([5]; 30 mg/kg dose of LipidA): induced Luc/mC and azotemia
Azotemia / serum creatinine ([5]; low doses of LipidA (Luc/mC still induced)): without azotemia or a change in serum creatinine
NGAL-luciferase activity (NGAL reporter ES cells): induced NGAL-luciferase activity
NGAL activity assayed by luciferase (Luc2/mC response) (NGAL-Luc2/mC reporter): graded Luc-mC response
NGAL activity assayed by luciferase (Luc2/mC response) (NGAL-Luc2/mC reporter; listed as lipidA): upregulated and dose dependent
Luc/mC induction, positive control (NGAL-Luc2/mC reporter; same mice at a later time after volume depletion): effectively induced Luc/mC
Response of primary reporter kidney cells (luciferase) [1]: responded in dose-dependent manner

CC(C)C[C@@H](C=O)NC(=O)[C@H](CC(C)C)NC(=O)[C@H](CC(C)C)NC(=O)OCc1ccccc1 [MG-132] (Cbz-Leu-Leu-Leu-aldehyde)
Tonic NGAL and Luc2/mC expression in testis (Nf-κβ signaling): suppressed
LipidA induced Luc/mC expression (Nf-κβ signaling; NGAL reporter mouse): reduced LipidA induced Luc/mC expression

CC(=O)O[C@H]1C(=O)[C@@]2(C)[C@H]([C@H](OC(=O)c3ccccc3)[C@]3(O)C[C@H](OC(=O)[C@H](O)[C@@H](NC(=O)c4ccccc4)c4ccccc4)C(C)=C1C3(C)C)[C@]1(OC(C)=O)CO[C@@H]1C[C@@H]2O [taxol]
Cyst growth (cyst growth): limit cyst growth
